Values joined by “and” are separate entries in the source; they are usually repeats but may differ in a detail not shown here. Equal entries are not always repeated. Where two headings read alike, the source gives them in different places.
How the values were obtained:
[1] = test system: blood-brain barrier model (co-cultivation of primary rat brain endothelial cells, primary glia and brain microvascular pericyte cells); test: Passage on the culture model of the blood-brain barrier (bidirectional permeability); assay type: in vitro ADME; details: for Papp A-B 30′ / Papp A-B 60′ / Papp B-A 30′ / Papp B-A 60′ / Passage through the blood-brain barrier compared to the 24/1 and 24/2 comparative compounds / Efflux ratio: Papp BA/PappAB: 10 μM; for Papp A-B 30′ / Papp A-B 60′: AB (from blood to brain) direction; for Papp A-B 30′ / Papp B-A 30′: sampling at 30 minutes; for Papp A-B 30′ / Papp A-B 60′ / Papp B-A 30′ / Papp B-A 60′: single replicates; for Papp A-B 60′ / Papp B-A 60′: sampling at 60 minutes; for Papp B-A 30′ / Papp B-A 60′: BA (from brain to blood) direction; for Passage through the blood-brain barrier compared to the 24/1 and 24/2 comparative compounds: FIG. 2; for Permeability grade in words: blood-brain barrier model
Description: (§1) The blood-brain barrier model prepared by the co-cultivation of three cell types (primary rat brain endothelial cells, primary glia and brain microvascular pericyte cells) was used for the permeability experiments (Nakagawa S, Deli M A, Kawaguchi H, Shimizudani T, Shimono T, Kittel A, Tanaka K, Niwa M. Anew blood-brain barrier model using primary rat brain endothelial cells, pericytes and astrocytes. Neurochem Int. 2009 March-April; 54(3-4):253-63. doi: 10.1016/j.neuint.2008.12.002.; Veszelka S, Tóth A E, Walter F R, Datki Z, Mózes E, Fülöp L, Bozsó Z, Hellinger E, Vastag M, Orsolits B, Környei Z, Penke B, Deli M A. Docosahexaenoic acid reduces amyloid-β induced toxicity in cells of the neurovascular unit. J Alzheimers Dis. 2013; 36(3):487-501.).
(§2) Passage of the compounds of the invention was tested in two directions AB (“from blood to brain”) and BA (“from brain to blood”), in 10 μM concentration.
(§3) The permeability experiment took 60 minutes, with sampling at 30 and 60 minutes from the acceptor compartment.
(§4) The concentrations of the active substances passed through the endothelial cell layer were determined with mass spectrometry. By using the measured concentrations and the known data (volume, starting concentration) the clearance (μl) values, or from the clearance and volume data, by taking the surface and the time into consideration, the so-called permeability coefficients (papp, apparent permeability coefficient; measurement unit 10^−6 cm/s) were calculated, which provide the permeation rates of the compounds.

[2] = as above; assay type: in vitro ADME, rat; details: rat, 10 μM; for Papp A→B at 60 min, 10 μM / Papp A→B at 30 min, 10 μM: AB (from blood to brain) direction; for Papp B→A at 60 min, 10 μM / Papp B→A at 30 min, 10 μM: BA (from brain to blood) direction; for efflux ratio at 60 min, 10 μM: read-out: Efflux ratio: Papp BA/PappAB
Description: as §1, §2, §3, §4

[3] = test system: fEPSP from the stratum radiatum layer of the CA1 region of the hippocampus; test: In vitro electrophysiology on hippocampal brain slices (fEPSP amplitude, CA1); assay type: cell-based, Wistar rats; details: for fEPSP amplitude, minutes 31-40 of recording (washing in phase): normalized to the averages of the amplitudes of the control phase, last 10 minutes of washing in; for fEPSP amplitude, minutes 61-70 of recording (washing off phase): after 200 μM, normalized to the control phase, last 10 minutes of recording
Method: In the course of our experiments young adult (200-250 g) male Wistar rats were used. Until the start of the experiments the animals were housed in the animal house of the Department of Physiology, Anatomy and Neuroscience, University of Szeged, in standard plastic cages, where 12-12 hours light-dark cycles, standard 23° C. temperature and free access to water and food were provided. In the course of the experiments we aimed at using a minimum number of animals and to cause them the smallest degree of suffering. In each case the principles relating to the care of laboratory animals, the animal care related protocol approved by the Hungarian Health Committee (1998), and the Decree of the Council of the European Communities of 22 Sep. 2010 (2010/63/EU) were followed.
The animals received Isoflurane (3% and then 1%) inhalation anaesthesia for the electrophysiological measurements. After ensuring that the animals were in a deep sleep phase (the paw withdrawal reflex occurring for squeezing stopped), they were decapitated. By incising the head skin and the underlying connective tissue the skull was exposed. Then incisions were made in longitudinal direction along the sagittal suture as well as in transversal direction along the suture coronalis, furthermore caudally therefrom in the right and left direction. After the opening the bregma coronalis incisions were made behind the bulbi and in front of the cerebellum, allowing the removal of the approx. 3 mm thick brain region, containing the hippocampus. From the middle part of the hippocampus 350 μm thick slices were prepared with vibratome (Leica VT1200S, Germany). The cutting was performed in artificial cerebrospinal fluid (aCSF), whose temperature was 4° C. maximum. The aCSF was composed of: 130 mM NaCl, 3.5 mM KCl, 1 mM NaH2PO4, 24 mM NaHCO3, 1 mM […], 3 mM MgSO4 and 10 mM D-glucose (Sigma, Germany). The cut slices were placed in recording aCSF of room temperature, whose composition differed only in the 3 mM CaCl2) and 1.5 MgSO4 concentrations from the one used for cutting. Both the cutting and the recording aCSF were oxygenated with carbogen (95% O2, 5% CO2), for providing the suitable and uninterrupted O2 supply. After the preparation of all the hippocampal slices the recording aCSF in the slice holder container was warmed to 34-35° C., and the brain slices were left to recover for one hour under these conditions in order to assure the proceeding of the regeneration processes started against the damages caused in the course of the slice-preparation. […]
For the electrophysiological recordings a concentric stainless steel electrode (Neuron elektród kft; Budapest, Hungary) was placed in the stratum radiatum layer between the CA3-CA1 regions of the hippocampus, wherein the stimulation was performed with constant current intensity, with 0.2 ms pulses of 0.033 Hz frequency. By positioning the recording electrodes of 2-3 MΩ filled with aCSF in orthodrom position from the previously mentioned region, stimulating postsynaptic field potentials (fEPSP) were conducted from the stratum radiatum layer of the CA1 region, and their amplitudes were monitored.
Submaximal stimulation was used, i.e. about 70-80% of the intensity of the smallest pulse causing the fEPSP of maximum amplitude was used. […] The results were evaluated with the OriginPro 8 (OriginLab Corporation, Northampton, Mass., USA) software. […]

[4] = Solubility compared to previously synthesized analogues (statement); assay type: physicochemical
[5] = average, n=6, read-out: Papp A-B Average
[6] = sampling at 60 minutes, single replicates, read-out: Papp A-B 60′
[7] = average, n=6, read-out: Papp B-A Average
[8] = sampling at 60 minutes, single replicates, read-out: Papp B-A 60′

Row | SMILES | Passage through the blood-brain barrier compared to the 24/1 and 24/2 comparative compounds [1] | Papp A→B at 60 min, 10 μM [2, 5] [×10⁻⁶ cm/s] | Papp A→B at 30 min, 10 μM ([2]; single replicates) [×10⁻⁶ cm/s] | Papp A→B at 60 min, 10 μM [2, 6] [×10⁻⁶ cm/s] | Papp B→A at 60 min, 10 μM [2, 7] [×10⁻⁶ cm/s] | Papp B→A at 30 min, 10 μM ([2]; single replicates) [×10⁻⁶ cm/s] | Papp B→A at 60 min, 10 μM [2, 8] [×10⁻⁶ cm/s] | efflux ratio at 60 min, 10 μM [2] | Papp A-B 30′ [1] | Papp A-B 60′ [1] | Papp B-A 30′ [1] | Papp B-A 60′ [1] | further results
1 | Cl.O=C(O)c1nc2ccccc2c(O)c1CN1CCOCC1 [Example 5, 4-hydroxy-3-(morpholinomethyl)quinoline-2-carboxylic acid hydrochloride] | doubled | 11 | 7.4 | 12.4 | 5.4 | 2.5 | 7.6 | ~0.5 | – | – | – | – | Papp A-B 30′ ([1]; hydrochloride): 8.9 10^−6 cm/s and 8.2 10^−6 cm/s; Papp A-B 60′ ([1]; hydrochloride): 15.4 10^−6 cm/s and 13.9 10^−6 cm/s; Papp B-A 30′ ([1]; hydrochloride): 4.0 10^−6 cm/s and 3.2 10^−6 cm/s; Papp B-A 60′ ([1]; hydrochloride): 7.8 10^−6 cm/s and 7.5 10^−6 cm/s; Permeability grade in words [1]: medium permeability
2 | CN(C)CCNC(=O)c1nc2ccccc2c(O)c1CN1CCOCC1 [Example 16, N-(2-(dimethylamino)ethyl)-4-hydroxy-3-(morpholinomethyl)quinoline-2-carboxamide] | six times higher | 36.9 | 32.7 | 37.8 | 22 | 20.1 | 21.7 | ~0.5 | 37.2 10^−6 cm/s and 38.0 10^−6 cm/s | 37.4 10^−6 cm/s and 38.6 10^−6 cm/s | 21.8 10^−6 cm/s and 21.3 10^−6 cm/s | 23.2 10^−6 cm/s and 23.8 10^−6 cm/s | Permeability grade in words [1]: high permeability
3 | CCN(CC)Cc1c(C(=O)NCCN2CCCC2)nc2ccccc2c1O [Example 17, 3-((diethylamino)methyl)-4-hydroxy-N-(2-(pyrrolidin-1-yl)ethyl)quinoline-2-carboxamide] | – | – | – | – | – | – | – | – | – | – | – | – | fEPSP amplitude, minutes 31-40 of recording (washing in phase) ([3]; 200 μM): 124.66±10.43%; fEPSP amplitude, minutes 61-70 of recording (washing off phase) [3]: 110.73±7.63%
4 | O=C(NCCN1CCCC1)c1nc2ccccc2c(O)c1CN1CCOCC1 [Example 20, 4-hydroxy-3-(morpholinomethyl)-N-(2-(pyrrolidin-1-yl)ethyl)quinoline-2-carboxamide] | triple | 18.6 | 16.4 | 16.9 | 25 | 22.3 | 24.9 | ~1 | 20.1 10^−6 cm/s and 17.9 10^−6 cm/s | 21.5 10^−6 cm/s and 18.8 10^−6 cm/s | 24.3 10^−6 cm/s and 25.1 10^−6 cm/s | 26.7 10^−6 cm/s and 26.6 10^−6 cm/s | fEPSP amplitude, minutes 31-40 of recording (washing in phase) ([3]; 200 μM): 58.14±10.16%; fEPSP amplitude, minutes 61-70 of recording (washing off phase) [3]: 107.14±17.99%; Solubility compared to previously synthesized analogues or other analogues with similar effect [4]: better solubility
5 | Cl.O=C(NCCN1CCCC1)c1cc(O)c2ccccc2n1 [comparative 24/1, 4-hydroxy-N-(2-(pyrrolidin-1-yl)ethyl)quinoline-2-carboxamide, reference compound] | – | 5.7 | 5.4 | 7.2 | 8.8 | 8.3 | 12.2 | ~1 | 4.5 10^−6 cm/s and 7.4 10^−6 cm/s | 3.9 10^−6 cm/s and 5.8 10^−6 cm/s | 8.1 10^−6 cm/s and 4.2 10^−6 cm/s | 10.5 10^−6 cm/s and 9.2 10^−6 cm/s | Efflux ratio: Papp BA/PappAB [1]: 1.5
6 | CN(C)CCNC(=O)c1cc(O)c2ccccc2n1.Cl [comparative 24/2, N-(2-(dimethylamino)ethyl)-4-hydroxyquinoline-2-carboxamide, reference compound] | – | 6.7 | 4.2 | 6 | 8.1 | 7.6 | 9.7 | ~1 | 8.3 10^−6 cm/s and 6.4 10^−6 cm/s | 8.4 10^−6 cm/s and 6.7 10^−6 cm/s | 7.9 10^−6 cm/s and 7.2 10^−6 cm/s | 7.9 10^−6 cm/s and 8.5 10^−6 cm/s | Efflux ratio: Papp BA/PappAB [1]: 1.2
7 | O=C(O)c1cc(O)c2ccccc2n1 [kynurenic acid, 4-hydroxy-quinoline-2-carboxylic acid] | – | – | – | – | – | – | – | – | – | – | – | – | fEPSP amplitude decrease in the last 10 minutes of the washing in phase ([3]; 200 μM, preliminary experimental results): 53.86±6.09%

From patent US10870633B2, “Types of C-3 substituted kynurenic acid derivatives with improved neuroprotective activity” (SZEGEDI TUDOMÁNYEGYETEM, priority 2016, dated 2020)
